According to patent US10570426B2, “Method for producing methacrylic acid ester and novel methacrylic acid ester synthetase” (Mitsubishi Chemical Corporation, priority 2014, dated 2020):
Values belong to the compound of their own block, whether it stands above or below them.

Legend:
[1] = system: AAT derived from Chamaemelum nobile; assay: Substrate specificity of AAT derived from Chamaemelum nobile; assay type: biochemical; settings: 0.12 mM acyl-CoA, pH 8.5, butyl methacrylate = 100%; for Relative activity with n-butanol: 40 mM n-butanol; for Relative activity with n-hexanol: 40 mM n-hexanol; for Relative activity with ethanol: 40 mM ethanol; for Relative activity with methanol: 40 mM methanol
Method: The substrate specificity of AAT was evaluated by the purified fraction obtained by MonoQ 5/50 GL column chromatography in Example 9.
In a 2-mL capacity screw vial, a reaction solution (50 mM Tris-HCl (pH 8.5), 40 mM alcohol, 0.12 mM acyl-CoA) was prepared, into which the purified fraction was added to be 500 μL. The vial was sealed and the mixture was reacted at 30° C. for one hour.
After the reaction was completed, 50 μL of 10 mM 2-hexanon was added as the internal sstandard, and solvent extraction was conducted using 200 μL octane or hexane. Centrifugation was conducted and 8 μL of the separated liquid was injected into GC to measure the ester produced through the enzymatic reaction. The amount of ester was calculated by the calibration curve using an internal standard method. The GC measuring conditions were set the same as in Example 9 except that the column temperature was adjusted appropriately for each of the target esters (see Table 4). To determine the quantity of n-butyl propionate, since the present column is unable to separate its peak from the peak of n-butanol, the absolute calibration curve method was employed under the GC-MS analysis conditions the same as in Example 1 (however, temperature conditions were changed to 80° C.→1 min→10° C./min→200° C.·5 min).
Relative activity values are shown based on the specific activity of butyl methacrylate set as 100%.

[2] = system: AAT derived from Chamaemelum nobile; assay: Km of AAT derived from Chamaemelum nobile; assay type: biochemical; settings: 40 mM n-hexanol, Tris-HCl pH 8.5, 30° C., 2 hours
Method: The Km values for methacrylyl-CoA and acetyl-CoA were measured using the purified fraction obtained by MonoQ 5/50 GL column chromatography in Example 9. A 500 μL reaction solution was prepared by adding the purified fraction, 40 mM n-hexanol and methacrylyl-CoA or acetyl-CoA at each concentration to a 50 mM Tris-HCl buffer (pH 8.5). The vial was sealed, and reaction was carried out at 30° C. for 2 hours.
After the reaction was completed, the same GC analysis as in Example 10 was conducted to measure the ester produced in the enzymatic reaction. The […] (Km) was applied to a Michaelis-Menten expression to calculate the values using a Kaleidagraph software made by HULINKS.

- Km [2]: 711 µM
Compound: CC(=O)SCCNC(=O)CCNC(=O)[C@H](O)C(C)(C)COP(=O)(O)OP(=O)(O)OC[C@H]1O[C@@H](n2cnc3c(N)ncnc32)[C@H](O)[C@@H]1OP(=O)(O)O [acetyl-CoA]
- Relative activity with n-butanol [1]: 37%
- Relative activity with n-hexanol [1]: 84%

Compound: CCCC(=O)SCCNC(=O)CCNC(=O)[C@H](O)C(C)(C)COP(=O)(O)OP(=O)(O)OC[C@H]1O[C@@H](n2cnc3c(N)ncnc32)[C@H](O)[C@@H]1OP(=O)(O)O [butyryl-CoA]
- Relative activity with n-butanol [1]: 40%

Compound: CCCCCC(=O)SCCNC(=O)CCNC(=O)[C@H](O)C(C)(C)COP(=O)(O)OP(=O)(O)OC[C@H]1O[C@@H](n2cnc3c(N)ncnc32)[C@H](O)[C@@H]1OP(=O)(O)O [hexanoyl-CoA]
- Relative activity with ethanol [1]: 11%
- Relative activity with n-butanol [1]: 21%

Compound: CC(C)C(=O)SCCNC(=O)CCNC(=O)[C@H](O)C(C)(C)COP(=O)(O)OP(=O)(O)OC[C@H]1O[C@@H](n2cnc3c(N)ncnc32)[C@H](O)[C@@H]1OP(=O)(O)O [isobutyryl-CoA]
- Relative activity with ethanol [1]: 5%
- Relative activity with n-butanol [1]: 114%

- Km [2]: 41 µM
Compound: C=C(C)C(=O)SCCNC(=O)CCNC(=O)[C@H](O)C(C)(C)COP(=O)(O)OP(=O)(O)OC[C@H]1O[C@@H](n2cnc3c(N)ncnc32)[C@H](O)[C@@H]1OP(=O)(O)O [methacrylyl-CoA]
- Relative activity with ethanol [1]: 4%
- Relative activity with methanol [1]: 1%
- Relative activity with n-butanol [1]: 100%
- Relative activity with n-hexanol [1]: 182%

Compound: CCC(=O)SCCNC(=O)CCNC(=O)[C@H](O)C(C)(C)COP(=O)(O)OP(=O)(O)OC[C@H]1O[C@@H](n2cnc3c(N)ncnc32)[C@H](O)[C@@H]1OP(=O)(O)O [propionyl-CoA]
- Relative activity with methanol [1]: 4%
- Relative activity with n-butanol [1]: 136%
